Data reported in patent publication US9119396B2, “Method for promoting plant growth” (SUMITOMO CHEMICAL COMPANY, LIMITED, priority 2011, dated 2015).

Key:
Type in all cases: in vivo
[1] = test system: Rice (cultivar: Nipponbare); experiment: Test Example 1: promotion of root growth in hydroponics of rice; conditions: 1 ppm, 3 days germination + 3 days cultivation, average of 4 or 5 individuals
Protocol: Evaluation Test for Promotion of Root Growth in Hydroponics of Rice Rice (cultivar: Nipponbare) A 1/10,000 volume of each DMSO solution containing each of the present compounds 1 to 4 at 10,000 ppm was added to a Hoagland solution for hydroponics (Hoagland and Amon, California Agricultural Experiment Station 1950 Circular 347 pp. 34) at ¼ concentration to obtain a solution for hydroponics containing each of the present compounds 1 to 4 at 1 ppm. These solutions were used in the treated-group. In a non-treated group, a solution for hydroponics obtained by adding a Hoagland solution for hydroponics at ¼ concentration to a 1/10,000 volume of DMSO was used. The rice seeds were immersed in an aqueous solution of 1% sodium hypochlorite for 10 minutes, followed by 70% ethanol solution to sterilize their surfaces. After that, the seeds were washed with distilled water. The sterilized seeds were immersed in each solution for hydroponics containing the test compound at 1 ppm, and incubated at a temperature of 28° C. for 3 days under dark conditions to stimulate the germination of the seeds. Then, 30 ml of each solution for hydroponics containing the test compound at 1 ppm was dispensed into a plastic tube (20 mm in diameter×113 mm in height) covered with a cardboard on the lateral surface for blocking a light. A float made of a styrene board and a vinyl mesh was placed on the water surface of each solution for hydroponics, and the rice seeds obtained after the stimulation of germination were placed on the float. The seeds were cultivated for 3 days under the conditions of an illuminance of 4,000 lux at the top of the tube, a temperature of 26° C., a humidity of 50%, and a day length of 16 hours. The root length of the rice seedlings obtained after the cultivation was measured by using WinRHIZO system (manufactured by REGENT INSTRUMENTS). The average value of the root length in the treated group was calculated from the measurement values of 4 or 5 individuals. As a result, the root length in the treated group, wherein the plants were treated with the present compound 1, 2, 3 or 4 (at a concentration of 1 ppm in each case), was much longer than that in the non-treated group.

[2] = test system: Benthamiana tobacco (Nicotiana benthamiana); experiment: Test Example 9: reduction of low-temperature stress in hydroponics of tobacco; conditions: tobacco seedlings, medium with 0.1 ppm compound for 7 days; low-temperature stress 1.5±1.0° C. 7 days, then 3 days at 22° C.
Protocol: Evaluation Test for Reduction of Low-Temperature Stress in Hydroponics of Tobacco (Nicotiana benthamiana) Benthamiana tobacco (Nicotiana benthamiana) DMSO solutions containing each of the present compounds 1, 4 and 5 at a concentration of 100 ppm were prepared. […] These media were used in the treated-group. In a non-treated group, a medium obtained by adding a 1/1,000 volume of DMSO to a Murashige-and-Skoog medium at ½ concentration was used. The seeds of tobacco (Nicotiana benthamiana) were sown on 5 μL of the medium, and incubated at 22° C. overnight. Thereto was added 45 μL of a medium containing each present compound at a concentration of 0.1 ppm, and cultivated for 7 days under the conditions of an illuminance of 4,000 lux, a temperature of 22° C. and a day length of 16 hours, thereby treating the seedlings of tobacco (Nicotiana benthamiana) with the test compound. In the non-treated group, 45 μL of a medium obtained by adding a 1/1,000 volume of DMSO to a Murashige-and-Skoog medium at ½ concentration was added, and treated in the same manner as above. The seedlings of tobacco (Nicotiana benthamiana) treated with the present compounds were cultivated for 7 days under the conditions of an illuminance of 2,000 lux, a temperature of 1.5±1.0° C., and a day length of 16 hours, thereby subjecting to low-temperature stress treatment. The plants of tobacco (Nicotiana benthamiana) subjected to low-temperature stress treatment was cultivated for 3 days under the conditions of an illuminance of 4,000 lux, a temperature of 22° C., and a day length of 16 hours, and then the green leaf area of the plants was visually evaluated. Completely dead plant was scored as 0, the plant without low-temperature stress treatment was scored as 5, the green area was rated on a 6-point scale in ⅕ increments, and the score of not less than 1 was regarded as effective in reducing the stress. As a result of visual evaluation, the green leaf area of plants in the treated group, wherein the plants were treated with the present compound 1, 4 or 5 was much larger than that in the non-treated group.

[3] = test system: Rice (cultivar: Nipponbare); experiment: Test Example 8: promotion of root growth in hydroponics of rice; conditions: 1 ppm, 3 days germination + 3 days cultivation, average of 4 or 5 individuals
Protocol: Evaluation Test for Promotion of Root Growth in Hydroponics of Rice Rice (cultivar: Nipponbare) A 1/10,000 volume of a DMSO solution containing the present compound 5 at 10,000 ppm was added to a Hoagland solution for hydroponics (Hoagland and Amon, California Agricultural Experiment Station 1950 Circular 347 pp. 34) at ¼ concentration to obtain a solution for hydroponics containing the present compound 5 at 1 ppm. The solution was used in the treated-group. In a non-treated group, a solution for hydroponics obtained by adding a Hoagland solution for hydroponics at ¼ concentration to a 1/10,000 volume of DMSO was used. The rice seeds were immersed in an aqueous solution of 1% sodium hypochlorite for 10 minutes, followed by 70% ethanol solution to sterilize their surfaces. After that, the seeds were washed with distilled water. The sterilized seeds were immersed in the solution for hydroponics containing the test compound at the given concentration, and incubated at a temperature of 28° C. for 3 days under dark conditions to stimulate the germination of the seeds. […] The root length of the rice seedlings obtained after the cultivation was measured by using WinRHIZO system (manufactured by REGENT INSTRUMENTS). The average value of the root length in the treated group was calculated from the measurement values of 4 or 5 individuals. […]

SMILES | root length of the rice seedlings vs non-treated group [1] | green leaf area of plants (visual evaluation) vs non-treated group [2] | root length of the rice seedlings vs non-treated group [3]
COC(=O)c1cc2ccc(C(F)(F)F)cc2s1 [compound 2] | much longer |  | 
COC(=O)c1cc2c(C(F)(F)F)cccc2s1 [compound 3] | much longer |  | 
CCOC(=O)c1cc2cc(C(F)(F)F)ccc2s1 [compound 5] |  | much larger | much longer
COC(=O)c1cc2cccc(C(F)(F)F)c2s1 [compound 4] | much longer | much larger | 
